Like-named read-outs stand apart in the source and are kept apart here.
Legend:
[1] = tested on: HepG2 cells; conditions: for IC50: read-out: MMP assays IC50 (µM) HepG2
[2] = tested on: HepG2 cells; conditions: cited from earlier work
[3] = tested on: rat primary hepatocytes; test: MMP assay in rat primary hepatocytes; conditions: for IC50: read-out: MMP assays IC50 (µM) Rat Hepatocytes
[4] = HepG2 cells, single number from one experiment
[5] = read-out: MMP assays IC50 (µM) qHTS-HepG2
[6] = rat hepatocytes, mean ± SD of three experiments
[7] = read-out: MMP assays IC50 (µM), qHTS-HepG2

Row | Compound | MMP assays efficacy (%) HepG2 [1, 4] | IC50 [1, 4] [µM] | MMP assays efficacy (%) qHTS-HepG2 [2] | IC50 [2, 5] [µM] | MMP assays efficacy (%) Rat Hepatocytes [3, 6] | IC50 [3, 6] [µM] | MMP assays IC50 (µM) HepG2 [1, 4] | MMP assays IC50 (µM) Rat Hepatocytes [3, 6] | IC50 [2, 7] [µM] | IC50 ([3]; Rattus norvegicus, Hepatocyte) [µM] | MMP assays IC50 (µM) qHTS-HepG2 [2] | MMP assays IC50 (µM) HepG2 [1] | MMP assays efficacy (%) HepG2 [1] | IC50 [1] [µM] | MMP assays IC50 (µM) Rat Hepatocytes [3] | IC50 [3] [µM]
1 | CCCCCCCC[n+]1ccn(C)c1.O=S(=O)([O-])C(F)(F)F [1-Methyl-3-octylimidazolium trifluoromethanesulfonate] | -84% | 15.8 | -58±19% | 8.38 ± 4.29 | -82±36% | 31.6 | – | – | – | – | – | – | – | – | – | –
2 | CCCCCCCC/C=C\CCCCCCCC(N)=O [(9Z)-Octadec-9-enamide] | inactive | – | -67±17% | 41.6 ± 7.16 | inactive | – | inactive | inactive | – | – | – | – | – | – | – | –
3 | O=Cc1c2ccccc2c(Cl)c2ccccc12 [Compound 10-Chloro-9-anthraldehyde] | inactive | – | -82±26% | 13.9 ± 7.82 | -47±21% | 24.3 ± 28.8 | inactive | – | – | – | – | – | – | – | – | –
4 | Nc1ccc(NC(=O)c2ccc(N)cc2)cc1 [4,4'-Diaminobenzanilide] | -93% | 7.08 | -100±8% | 3.72 ± 2.85 | -86±15% | 33.5 ± 2.73 | – | – | – | – | – | – | – | – | – | –
5 | Cc1cc(C(=C2C=CC(=N)C=C2)c2ccc(N)cc2)ccc1N [C.I. Basic violet 14] | -96% | 0.87 | -87±10% | 0.18 ± 0.16 | -71±37% | 6.84 ± 4.71 | – | – | – | – | – | – | – | – | – | –
6 | CC(C)COC(=O)c1ccc(O)cc1 [Isobutylparaben] | -129% | 14.1 | -91±6% | – | inactive | – | – | inactive | 14.2 ± 1.82 | – | – | – | – | – | – | –
7 | CC(C)(c1cc(Br)c(OCCO)c(Br)c1)c1cc(Br)c(OCCO)c(Br)c1 | -99% | 11 | -97±15% | 6.21 ± 0.42 | -88±17% | 32.8 ± 2.67 | – | – | – | – | – | – | – | – | – | –
8 | CCCCCCCCOc1ccc(C(=O)O)cc1 [4-Octyloxybenzoic acid] | inactive | – | -100±24% | 39.6 ± 31.3 | -57±30% | 48 ± 11.6 | inactive | – | – | – | – | – | – | – | – | –
9 | CCCCCCOc1ccccc1C(N)=O [Exalamide] | inactive | – | -73±11% | 9.81 ± 3 | -59±17% | – | inactive | – | – | 29.2 ± 2.37 | – | – | – | – | – | –
10 | COc1ccc(C(=O)c2ccccc2)c(O)c1 [Compound 2-Hydroxy-4-methoxybenzophenone] | inactive | – | inactive | – | – | – | inactive | – | – | 50.1 ± 18.9 | inactive | – | – | – | – | –
11 | Nc1nc(-c2ccc([N+](=O)[O-])cc2)cs1 [2-Amino-4-(p-nitrophenyl)thiazole] | -54% | 8.91 | -59±9% | 3.9 ± 1.78 | -53±16% | 20.6 ± 21.1 | – | – | – | – | – | – | – | – | – | –
12 | CC(C)(O)c1ccccc1CC[C@@H](SCC1(CC(=O)O)CC1)c1cccc(/C=C/c2ccc3ccc(Cl)cc3n2)c1 [Montelukast sodium] | – | – | -72±20% | – | – | – | – | – | – | 24.1 ± 9.54 | – | inactive | inactive | – | – | –
13 | Cc1cc(C(C)(C)C)c(O)c(C)c1Cn1c(=O)n(Cc2c(C)cc(C(C)(C)C)c(O)c2C)c(=O)n(Cc2c(C)cc(C(C)(C)C)c(O)c2C)c1=O | -82% | 44.7 | -98±4% | 12.2 ± 2.84 | -40±24% | 26.8 ± 25.3 | – | – | – | – | – | – | – | – | – | –
14 | CCn1c2ccccc2c2cc(N)ccc21.Cl [3-Amino-9-ethylcarbazole hydrochloride] | -38% | 14.1 | -93±11% | 35.4 ± 24.5 | -53±23% | 56.2 | – | – | – | – | – | – | – | – | – | –
15 | Bis(tributyltin)oxide | – | – | -112±4% | 0.09 ± 0.02 | – | – | – | – | – | – | – | – | -98% | 0.31 | inactive | –
16 | CC(=O)c1ccc2ccc3ccccc3c2c1 [Compound 3-Acetylphenanthrene] | -105% | 56.2 | -105±10% | 36.9 ± 13.7 | -44±5% | 42.2 ± 19.8 | – | – | – | – | – | – | – | – | – | –

Row | Compound | MMP assays efficacy (%) HepG2 [1, 4] | IC50 [1, 4] [µM] | MMP assays efficacy (%) qHTS-HepG2 [2] | IC50 [2, 5] [µM] | MMP assays efficacy (%) Rat Hepatocytes [3, 6] | IC50 [3, 6] [µM] | MMP assays IC50 (µM) HepG2 [1, 4] | MMP assays IC50 (µM) Rat Hepatocytes [3, 6] | IC50 [2, 7] [µM] | IC50 ([3]; Rattus norvegicus, Hepatocyte) [µM] | MMP assays IC50 (µM) qHTS-HepG2 [2] | MMP assays IC50 (µM) HepG2 [1] | MMP assays efficacy (%) HepG2 [1] | IC50 [1] [µM] | MMP assays IC50 (µM) Rat Hepatocytes [3] | IC50 [3] [µM]
17 | CCCCCCCC[N+](C)(CCCCCCCC)CCCCCCCC.[Cl-] [N-Methyl-N,N-dioctyloctan-1-aminium chloride] | -89% | 10 | -80±6% | – | -100±17% | 19.6 ± 4.89 | – | – | 2.73 ± 0.32 | – | – | – | – | – | – | –
18 | Acriflavine hydrochloride | – | – | -131±19% | 0.94 ± 0.44 | – | – | – | – | – | – | – | – | -107% | 0.44 | – | 3.55 ± 1.14
19 | CC(C)(C)NCC(O)CSc1nc(-c2ccc(C(N)=O)s2)cs1.Cl (stereo not drawn) [Arotinolol hydrochloride] | -88% | 27.5 | -64±8% | 17 ± 3.45 | inactive | – | – | inactive | – | – | – | – | – | – | – | –
20 | CCN(C(=O)N(CC)c1ccccc1)c1ccccc1 [N,Nφ-Diethylcarbanilide] | inactive | – | -69±23% | – | -58±11% | 13.1 ± 16.4 | inactive | – | 21.7 ± 38.2 | – | – | – | – | – | – | –
21 | O=C1OC(OC(=O)c2cccnc2Nc2cccc(C(F)(F)F)c2)c2ccccc21 (stereo not drawn) [Talniflumate] | inactive | – | -105±19% | – | -85±2% | – | inactive | – | 27 ± 2.56 | 16 ± 6.68 | – | – | – | – | – | –
22 | Cc1cc2nc3ccc(N(C)C)cc3[s+]c2cc1N.[Cl-] [Toluidine blue] | -44% | 4.89 | -50±26% | – | inactive | – | – | inactive | 3.48 ± 1.6 | – | – | – | – | – | – | –
23 | CC(C)(c1cc(Br)c(O)c(Br)c1)c1cc(Br)c(O)c(Br)c1 [3,3φ,5,5φ-Tetrabromobisphenol A] | -98% | 17.8 | -123±2% | 13.2 ± 12.2 | -76±30% | 36.9 ± 12.6 | – | – | – | – | – | – | – | – | – | –
24 | COc1cc(Nc2c(C#N)cnc3cc(OCCCN4CCN(C)CC4)c(OC)cc23)c(Cl)cc1Cl [Bosutinib;PF-5208763/SKI-606] | -57% | 1.23 | -97±4% | 0.75 ± 0.48 | -56±1% | 16.6 ± 11.2 | – | – | – | – | – | – | – | – | – | –
25 | CCCCCCCCCOC(=O)c1ccc(O)cc1 [Nonylparaben] | -110% | 7.94 | -101±6% | – | inactive | – | – | inactive | 4.43 ± 0.3 | – | – | – | – | – | – | –
26 | O=C(Nc1ccc([N+](=O)[O-])cc1)Nc1ccc([N+](=O)[O-])cc1 [4,4'-Dinitrodiphenylurea] | – | – | -79±2% | 0.46 ± 0.06 | – | – | – | – | – | – | – | – | -90% | 0.97 | – | 0.7 ± 0.46
27 | Verteporfin | -127% | 8.69 | -65±5% | – | -43±14% | 21.8 ± 7.79 | – | – | 3.27 ± 1.85 | – | – | – | – | – | – | –
28 | CC(C)(C)c1cc(Cc2cc(C(C)(C)C)c(O)c(C(C)(C)C)c2)cc(C(C)(C)C)c1O [4,4'-Methylenebis(2,6-di-t-butylphenol)] | inactive | – | inactive | – | inactive | – | inactive | inactive | – | – | inactive | – | – | – | – | –
29 | C[C@H](/C=C/[C@H](C)C(C)(C)O)[C@H]1CC[C@H]2/C(=C/C=C3C[C@@H](O)C[C@H](O)C3)CCC[C@]12C [Paricalcitol] | inactive | – | -69±16% | – | inactive | – | inactive | inactive | 8.91 ± 1.56 | – | – | – | – | – | – | –
30 | Cc1ccc2oc(CN(Cc3ccccc3)C(=O)Nc3c(F)cc(F)cc3F)c(-c3ccc(Cl)cc3)c2c1 | -66% | 56.2 | -59±30% | 21 ± 2.43 | inactive | – | – | inactive | – | – | – | – | – | – | – | –
31 | C[C@@H]1C[C@H]2[C@@H]3CCC4=CC(=O)C=C[C@]4(C)[C@@]3(F)[C@@H](O)C[C@]2(C)[C@@]1(O)C(=O)COC(=O)c1cccc(S(=O)(=O)[O-])c1.[Na+] [Dexamethazone metasulfobenzoate sodium] | inactive | – | inactive | – | inactive | – | inactive | inactive | – | – | inactive | – | – | – | – | –

From paper PMC6112376, “Comprehensive Analyses and Prioritization of Tox21 10K Chemicals Affecting Mitochondrial Function by in-Depth Mechanistic Studies” (Environmental Health Perspectives, 2018)
